The record followed here is PMC12799219, “In vitro and in vivo studies on the activity and selectivity of butoconazole in experimental infection by Trypanosoma cruzi” (Memórias do Instituto Oswaldo Cruz, 2026).

Values joined by “and” are separate entries in the source; they are usually repeats but may differ in a detail not shown here. Equal values may be shown once. “Also recorded” adds a separate entry of the source.

The test system of one data set is H9C2 mammalian cells. Kind of data set: cells. The class given is cell-based. Particulars: for EC50: Rattus norvegicus, H9c2, 24 h, read-out: Toxicity on H9C2 mammalian cells pEC50 (converted). As to the method:
(§1) Mammalian cell cultures - L929 fibroblast lineage were cultured in Roswell Park Memorial Institute 1640 medium without phenol red (RPMI - Sigma-Aldrich, St. Louis, MO, USA), supplemented with 10% foetal bovine serum (FBS - Cultilab - SP - Brazil) and 2 mM glutamine (Sigma-Aldrich, St. Louis, MO, USA) with pH 7.2 - 7.4, as previously reported.[21] H9C2, cardiomyoblast cultures, were maintained in Dulbecco’s Modified Eagle’s Medium (DMEM) high glucose (4500 mg/L) medium supplemented (Sigma-Aldrich, St. Louis, MO, USA) with 10% FBS (Cultilab - SP -Brazil), 2 mM glutamine (Sigma-Aldrich, St. Louis, MO, USA) and 100 μg/mL penicillin/streptomycin (Sigma-Aldrich, St. Louis, MO, USA).[22] Both cell cultures maintained at 37 °C under an atmosphere of 5% CO2, with weekly dissociation protocol using 0.01% trypsin.
(§2) Cytotoxicity assay - The toxicity of the compounds was evaluated on two mammalian cell lines (L929 and H9C2), as reported.[21] The cells were seeded in 96-well plates (4 x 10^3 cells/well - for L929; 25x10^3 cells/well - for H9C2) and incubated at 37 °C and 5% CO2. The L929 cultures were kept under treatment for 96 and 168 h with a serial dilution (1:2) of the compounds (up to 400 μM). After the treatment periods, the AlamarBlue® reagent (Thermo Fisher Scientific Inc) was added and incubated for 24 h. The H9C2 cultures were also treated in serial dilution up to 200 μM for 24 h. PrestoBlue® reagent (Thermo Fisher Scientific Inc) was added to the cultures and incubated for 3 h. All plates were analysed in the spectrophotometer SpectraMaxM3 (570 and 600 nm) and LC50 values (concentration capable of inducing loss of viability in 50% of the cells) determined.[21] All assays were done at least twice, in triplicates.

A further data set in a line: in vitro. Type of data set: cell-based. Particulars: rat, Toxicity on H9C2 mammalian cells LC50. As to the method:
as §1, §2

The test system of data set [1] is T. cruzi bloodstream trypomastigotes (Y strain). The data set can be described thus: Mouse model of acute T. cruzi infection: parasitaemia and mortality. Type of data set: in vivo, Swiss male mice. Particulars: for mortality (cumulative death) / parasitaemia peak decline at the 8 dpi: assay 1: BZ 25 mg/kg/day p.o., BTZ 45.61 mg/kg/day i.p.; for mortality (cumulative death) / parasitaemia reduction: five days; for parasitaemia peak decline at the 8 dpi: five days from 5 dpi; for animal mortality: assay 2, lower doses: BZ 10 mg/kg/day p.o. On the procedure:
In vivo analysis in a mouse model of acute T. cruzi infection - Swiss male mice (18 - 20 g) were obtained from the Institute of Sciences and Technologies in Biomodels (ICTB-FIOCRUZ), housed with a maximum of 5 animals per cage and kept in a specific pathogen-free (SPF) room at 20 - 24 °C under a 12 h light/dark cycle. All animals received sterilised water and food ad libitum. The animals were acclimatised for seven days before the experiments. For a proof-of-concept study, animals were infected by i.p (1x10^4) with bloodstream trypomastigotes (Y strain). The drugs administration started at the onset of parasitaemia (5th day dpi), only using mice with detectable parasitaemia.[19] ^, [28] Control mice groups were age-matched and housed under identical conditions. The following experimental groups were used ≥ 3 mice per group: untreated (infected vehicle-treated control) and treated orally (p.o) with BZ (10, 25 and 100 mg/kg/day), corresponding to suboptimal and optimal doses of the reference drug; infected and treated with BTZ (i.p) using concentrations adjusted to be equimolar to BZ doses (18.24, 45.61 and 182.44 mg/kg/day). Also, the following combo was administered: BZ (10 mg/kg/day/p.o) + BTZ (18.24 mg/kg/day/i.p). The animals received the drugs once a day for five consecutive days. A […] optimal dose of BZ (10 mg/kg/day) was chosen to clearly observe any benefit of its association with BTZ. The i.p. route for BTZ was chosen due to its low aqueous solubility.
Parasitaemia and mortality rate - Parasitaemia was performed by collecting 5 μL of the blood from the tail’s vein, disposing it on a slide and covering with coverslips (18 x 18 mm) for direct counting of parasites observed in 50 fields under light microscope (40X magnification).[19] ^, [28] The mortality was followed daily up to 30 days after the end of treatment and expressed as a percentage of cumulative mortality (% CM).[19] ^, [27] In vivo assays were conducted with n = 5 per group.

Data set [2] deals with T. cruzi intracellular forms (Tulahuen strain) in L929 cell lines. The data set can be described thus: Washout assay in L929 cultures infected with T. cruzi. The class given is cell-based, Trypanosoma cruzi. Particulars: 10 µM for 168 h, then 168 h drug-free. As to the method:
Washout assays in L929 cultures infected with T. cruzi - L929 cultures were infected with Tulahuen strain as above described and incubated or not for 168 h with 10 µM of BZ and BTZ (37 °C/5% CO2). RPMI culture medium (containing the tested compounds) was replaced every 72 h. Then, the cultures were rinsed with 0.1M PBS, and the drug-free culture medium added for another 168 h, replacing it every 72 h. The number of parasites released into the supernatant and of intracellular forms were analysed by light microscopy and by spectrophotometry (570 nm) after adding CPRG, respectively. The results were expressed as the percentage of reduction in parasite growth compared to untreated cells. BZ was used as a positive treatment control.[25] The data results from two independent experiments done in at least triplicate.

Setting [3] is: assay 2, higher doses: BZ 100 mg/kg/day p.o., BTZ 182.44 mg/kg/day i.p.
[4] abbreviates: assay 2, lowest doses: BZ 10 mg/kg/day p.o., BTZ 18.24 mg/kg/day i.p.

As for `Clc1ccc(CCC(Cn2ccnc2)Sc2c(Cl)cccc2Cl)cc1` (stereo not drawn) [BTZ, butoconazole], the EC50 in the data set with H9C2 mammalian cells was 37.2 µM. Further, the CC50 (usually the concentration giving 50% cytotoxicity) with H9C2 mammalian cells (rat, 24 h) is 36.36 ± 0.25 µM. The 50% cytotoxic concentration (CC50) at 24 h in the data set “in vitro” was 36 ± 0.25 µM. Further, in data set [1], the “mortality (cumulative death)” value is 40% and the “parasitaemia peak decline at the 8 dpi” value came out at 50%. For the same molecule, in data set [1] (setting [3]), the animal survival amounted to 100% and the parasitaemia reduction came out at 63%. Also, in data set [1] (BTZ 18.24 mg/kg/day i.p.), the animal mortality came out at 75%. For the same molecule, the parasitaemia reduction result in data set [1] (setting [4]) is reported as “only slightly”. Besides, in data set [2], the “Washout: reduction in the number of intracellular forms” value is > 96% and 96 - 98% and 96 ± 4%; the “Washout: reduction in the number of released parasites” value was 100 ± 0%.

Turning to `O=C(Cn1ccnc1[N+](=O)[O-])NCc1ccccc1` [BZ, benznidazole], the EC50 in the data set with H9C2 mammalian cells is more than 200 µM. The molecule further showed a cytotoxic concentration (CC50) at 24 h in “in vitro” of more than 200 µM. In data set [1], the “mortality (cumulative death)” value is listed as 0% and the “parasitaemia peak decline at the 8 dpi” value is 93%. Also, in data set [1] (setting [3]), the animal survival was found to be 100% and the parasitaemia reduction result is reported as “suppressed the peak; also recorded: fully suppressed parasitaemia”. The molecule further returned an animal mortality in data set [1] (BTZ 18.24 mg/kg/day i.p.) of 100%. Moreover, in data set [1] (setting [4]), the parasitaemia reduction result is listed as “only slightly”. Further, in data set [2], the “Washout: reduction in the number of intracellular forms” value is 98.6 ± 1.4% and the “Washout: reduction in the number of released parasites” value was 100 ± 0%.
